Data as given in ChEMBL document CHEMBL1156829 (Proc Natl Acad Sci U S A, 2008).
pEC50: −log10 of the molar value.

Key:
Plasmodium falciparum [1] = assay: NOVARTIS: Inhibition of Plasmodium falciparum 3D7 (drug-susceptible) proliferation in erythrocyte-based infection assay; assay type: functional, organism-based; settings: Plasmodium falciparum, 3D7
Plasmodium falciparum [2] = assay: NOVARTIS: Inhibition of Plasmodium falciparum W2 (drug-resistant) proliferation in erythrocyte-based infection assay; assay type: functional, organism-based; settings: for pEC50: Plasmodium falciparum, W2, read-out: EC50
[3] = NOVARTIS: Cytotoxicity against human hepatocellular carcinoma cell line (Huh7); assay type: toxicity, cell-based, Huh-7; settings: Huh7 cells (hepatocellular carcinoma cell line)

Structure (SMILES)	pEC50 (Plasmodium falciparum [1])	pEC50 (Plasmodium falciparum [2])	CC50 [3]	EC50 (Plasmodium falciparum [2])
CCOC(=O)C1=C(C)N/C(=C\c2cc(C)n(-c3cccc(Br)c3)c2C)C1=O	< 5.90	< 6.03	> 10000 nM	
Cc1cccc(NC2=NC(N)=NC(C)(C)N2)c1	7.24	6.51	> 10000 nM	
CC(C)CN1C(=O)c2ccccc2C(C(=O)Nc2ccc(CN3CCC(C)CC3)cc2)C1c1cccs1 (stereo not drawn)	5.69	5.95	> 100000 nM	
CCCCOc1ccc(N2C(N)=NC(N)=NC2(C)C)cc1	6.81	< 5.90	> 10000 nM	
COc1ccccc1N1C(=N)S/C(=C/c2ccc(N(C)C)cc2)C1=O	6.92	6.87	> 10000 nM	
OC1(c2ccc(Cl)c(C(F)(F)F)c2)CCN(CCOC2c3ccccc3CSc3ccc(Cl)cc32)CC1 (stereo not drawn)	5.99	6.05	19200 nM	
CCC(c1nc2ccccc2c(=O)n1-c1ccccc1OC)N(CCc1ccccc1)C(=O)c1cccc(OC)c1 (stereo not drawn)	5.97	7.51	> 10000 nM	
Cc1cc2c(cc1C)NC(c1ccccc1F)C1=C(CC(C)(C)CC1=O)N2 (stereo not drawn)	5.78	5.75	> 100000 nM	
COc1ccc(C2CC(=O)C3=C(C2)NC(=O)CC3c2ccc([N+](=O)[O-])cc2)cc1OC (stereo not drawn)	6.46	7.19	> 100000 nM	
CCOC(=O)C1=CN(C)C=C(C(=O)OCC)C1c1cc(Br)c(OCC)c(OC)c1	6.04	6.05	> 100000 nM	
COC(=O)c1ccccc1NC(=O)CN(C)c1nc(-c2ccc(OC)cc2)no1	6.10	6.35	> 10000 nM	
COc1ccc(-n2nc(C(=O)NCC(=O)Nc3ccc(F)cc3)c3ccccc3c2=O)cc1Cl	< 5.94	< 5.90	> 10000 nM	
Oc1cccc(C=Nc2ccccc2)c1O	6.44	6.36	> 10300 nM	
Cc1ccc2[nH]c(C)c(Br)c(=O)c2c1	5.91	6.05	> 100000 nM	
COc1ccc(C(=O)C[N+]2=C(C)c3ccc(C)n3CC2)cc1	5.93	5.89	> 100000 nM	
CCOC(=O)C(=O)N1c2ccc(C)cc2C(C)(c2ccccc2)CC1(C)C (stereo not drawn)	5.67	< 5.90	> 10000 nM	
O=C(Nc1ccccc1)NC1CC2CCCC(C1)N2CCc1ccccc1 (stereo not drawn)	6.81	7.01	> 10000 nM	
COc1ccc(/C=C2\SC(=O)NC2=Nc2ccccc2)c(OC)c1	5.96	6.00	> 10000 nM	
CC1CCN(c2ncnc3sc4c(c23)CCC(C)C4)CC1 (stereo not drawn)	5.98	5.64	> 100000 nM	
Cc1cc(C)c(S(=O)(=O)N2CCC(NC(=O)c3ccccc3)CC2)c(C)c1	5.97		> 100000 nM	No fit
CCOc1ccccc1-n1c(C(C)N(Cc2ccccc2)C(=O)Nc2cccc3ccccc23)nc2ccccc2c1=O (stereo not drawn)	6.07	6.62	> 10000 nM	
COc1cc(/C=C(\C#N)c2nc3ccccc3[nH]2)ccc1OCc1ccccc1F	< 5.92	6.04	> 10000 nM	
O=C(Nc1cc(Cl)cc(Cl)c1)Nc1cccc(C(F)(F)F)c1	7.86	< 4.90	14900 nM	
COc1ccc2oc(=O)c(C(=O)N(C)c3ccc(S(N)(=O)=O)cc3)cc2c1	< 5.90	< 6.00	> 10000 nM	

Structure (SMILES)	pEC50 (Plasmodium falciparum [1])	pEC50 (Plasmodium falciparum [2])	CC50 [3]	EC50 (Plasmodium falciparum [2])
O=C1N(Cc2cc3ccccc3s2)CC2CN(Cc3ccsc3)CCN12 (stereo not drawn)	6.97	6.82	> 100000 nM	
COc1cc2c(cc1OC)C1Cc3ccc(OC)c(OC)c3CN1CC2 (stereo not drawn)	5.59	6.06	> 100000 nM	
Cc1nnc(SCC(=O)NCc2ccco2)n1-c1ccc(F)cc1	< 5.05	6.34	> 100000 nM	
Cc1cccc(NC(=O)Nc2cccnc2)c1NC(=O)Nc1cccnc1	< 5.90	< 5.98	> 10000 nM	
COc1ccccc1Nc1nc2cc([N+](=O)[O-])c([N+](=O)[O-])cc2nc1Nc1cccc(Cl)c1	< 5.90	7.09	> 10000 nM	
CCOC(=O)C1=C(C)N/C(=C\c2cc(C)n(-c3ccc(C)cc3C)c2C)C1=O	< 5.90	5.76	> 10000 nM	
COc1cc(/C=C(\C#N)c2nc3ccccc3[nH]2)ccc1OCc1ccccc1	6.14	5.92	> 10000 nM	
Sc1nnc(-c2ccncc2)n1CCc1ccccc1	< 5.13	5.97	> 100000 nM	
c1ccc2c(c1)OC13CCCCC1C2NCC3 (stereo not drawn)	6.57	7.36	48600 nM	
CCOc1cc(-c2nnc3[nH]c(=O)n(C)c(=O)c3n2)ccc1OC(C)C	5.96	6.40	> 100000 nM	
Oc1ccc(-c2ccccn2)cc1CNC1CCN(Cc2ccccc2)CC1	6.39	6.84	21000 nM	
Nc1cc(C(=O)Nc2ccc(C3=NCCCN3)cc2)ccc1C(=O)Nc1ccc(C2=NCCCN2)cc1	6.72	6.91	> 100000 nM	
NC(Cc1ccccc1)C(=O)N1CCC(Nc2nsc3ccccc23)C1 (stereo not drawn)	5.95	5.82	12700 nM	
CC(=O)N(C1=C(N2CCOCC2)C(=O)c2ccccc2C1=O)c1ccc(Cl)c(Cl)c1	6.66	6.72	12200 nM	
Fc1ccc2nc(Nc3nc(-c4ccccn4)cs3)sc2c1	5.90	6.67	3040 nM	
Cc1ccc(C=Cc2ccc3ccccc3[n+]2C)cc1	7.23	5.83	16300 nM	
C=C(C[N+](C)(C)C)c1ccc([N+](=O)[O-])cc1	6.50	6.55	> 10000 nM	
O=S(=O)(Nc1cc(Sc2nc[nH]n2)c(O)c2ccccc12)c1ccc(F)cc1	5.80	6.49	20500 nM	
CNC(=O)NNC(=O)c1cccnc1	< 4.90	< 5.13	> 100000 nM	
O=C(NCc1ccco1)C1CCN(S(=O)(=O)c2ccc(Cl)cc2)CC1	6.29	6.45	> 100000 nM	
OCCCNc1cc(-c2ccccn2)nc(-c2ccccn2)n1	< 6.04	6.40	> 10000 nM	
CC(=O)Nc1cc(C(F)(F)F)cc(C(F)(F)F)c1	5.88	6.15	> 10000 nM	
Cn1nc(C(=O)NCc2ccccc2)c2c1CCN(Cc1cccc(O)c1)C2	< 5.19	6.03	> 100000 nM	
C=CCNC(=O)c1cc2c(=O)n3cccc(C)c3nc2n(CCc2ccccc2)c1=N	6.15	6.01	> 100000 nM	

Structure (SMILES)	pEC50 (Plasmodium falciparum [1])	pEC50 (Plasmodium falciparum [2])	CC50 [3]	EC50 (Plasmodium falciparum [2])
CCOC(=O)C(=CNc1ccccc1[N+](=O)[O-])C(=O)OCC	5.10	5.76	> 100000 nM	
CC(C)(C)c1ccc(/C=C/C(=O)NCc2ccco2)cc1	6.10	6.19	> 10000 nM	
CCN1CCN(c2cc(C)c3cc(NC(=O)C=Cc4ccc(OC)cc4)ccc3n2)CC1	5.70	5.56	> 100000 nM	
CCOC(=O)N1CCN(C(=O)c2cnc3ccc(C)cn3c2=O)CC1	< 6.45	< 5.78	> 10000 nM	
Oc1ccc(Nc2ccnc3cc(Cl)ccc23)cc1	5.47	5.45	39700 nM	
O=C1C(Nc2ccc(O)cc2)=CC(=NS(=O)(=O)c2cccs2)c2ccccc21	6.23	6.53	2430 nM	
COc1cc(NC(=O)Cn2ccc3ccc([N+](=O)[O-])cc32)cc(OC)c1OC	6.36	6.50	> 10000 nM	
COc1cc2c(O[C@@H]3O[C@H](CO)[C@@H](O)[C@H](O)[C@H]3O)c3c(c(-c4ccc5c(c4)OCO5)c2cc1OC)C(=O)OC3	7.13	6.92	784 nM	
Cc1oc2c(c1C(=O)NC1CCS(=O)(=O)C1)C(=O)c1ccccc1C2=O (stereo not drawn)	6.36	6.90	2400 nM	
Cc1ccc(C)n1-c1ccc(C(=O)N2CCC(C)CC2)cc1	5.29	5.69	> 100000 nM	
CCOc1ccc(C2C(C(=O)OC)=CNC=C2C(=O)OC)cc1Cl	6.52	6.24	> 100000 nM	
CCOC(=O)c1cnc2cc(OCC(C)C)c(OCC(C)C)cc2c1O [BUQUINOLATE]	6.19	6.02	> 10000 nM	
O=C(Nc1nc2ccccc2s1)c1ccc(S(=O)(=O)N2CCOCC2)cc1	< 5.90	< 7.34	> 10000 nM	
CN1C2CCC1C(=Cc1ccsc1)C(=O)C2=Cc1ccsc1	6.17	6.13	> 100000 nM	
CCc1ccc(-n2nnc(C(=O)Nc3ccccc3Cl)c2C)cc1	< 5.77	7.11	> 10000 nM	
OCCNc1nc(Nc2ccccc2)nc2ccccc12	6.78	6.20	47500 nM	
CC(C)N(CCNc1ncnc2c1[nH]c1ccc(Cl)cc12)C(C)C	6.58	6.60	15200 nM	
COc1cccc(-c2ccc(O)c(CNC34CC5CC(CC(C5)C3)C4)c2)n1	6.68	7.30	> 100000 nM	
CCc1c(C(C)S(=O)(=O)c2ccc(C)cc2)[nH]c(=O)n1-c1ccc(OC(F)(F)F)cc1 (stereo not drawn)	7.32	7.79	5750 nM	
CN(C)CCCn1c(N)c(-c2nc3ccccc3[nH]2)c2nc(C#N)c(C#N)nc21	6.33	6.56	60200 nM	
Cc1ccc(C)c(-c2csc(Nc3ccc(C)c(C)c3)n2)c1	6.31	6.94	> 100000 nM	
COc1ccc(C(c2ccc(N(C)C)cc2)c2ccc(N(C)C)cc2)cc1	6.45	6.56	> 100000 nM	
CN1CCc2c(sc3nc(SCc4ccccc4)n(-c4ccccc4)c(=O)c23)C1	5.75	6.17	> 100000 nM	
